Laboratory results published in patent US11279079B2, “Cell electrochemical sensor based on 3D printing technology and application thereof” (Jiangnan University, priority 2020, dated 2022).

How the values were obtained:
[1] = pigs, in vivo; cited from earlier work
[2] = test system: lung adenocarcinoma epithelial cells A549; experiment: Cell electrochemical sensor (3D-printed A549/carbon nanofiber/GelMA on screen-printed carbon electrode), EIS cytotoxicity and combination index evaluation; assay type: cell-based, human; conditions: for IC50 value measured by the EIS method: A549 cell sensor of example 1, 24 hours toxin stimulation, single toxin or combined effect; for impedance value of the cell sensor with increasing dose: concentration range of 0.1-5 μg/mL, 24 hours
Method: In an embodiment of the disclosure, the cell sensor needs to be incubated before application, and specific operations comprise: dropping a DMEM cell culture medium at a working electrode of a screen-printed carbon electrode to ensure that the culture medium can cover a cell/carbon nanofiber/GelMA complex on the working electrode to provide cells with nutrients needed for growth, and then placing the working electrode in an incubator with the carbon dioxide concentration of 5% and the humidity of 95% for incubation at 37° C. for 6-12 hours; after incubation, removing the original culture medium on the working electrode, diluting toxin standard substances with the DMEM cell culture medium into gradient concentration solutions, dropping the gradient concentration solutions on the working electrode printed with cells, and then carrying out electrochemical detection after placing the working electrode in the incubator for effect for 24 hours.
In an embodiment of the disclosure, the method uses a modified screen-printed carbon electrode as a sensing interface, a PET material is used as a substrate, the working electrode is composed of carbon, the reference electrode is composed of silver/silver chloride, the counter electrode is composed of carbon, electrochemical detection adopts electrochemical impedance spectroscopy (EIS) to test electrical signal changes of cells stimulated by toxins, the initial potential is 0.2 V, and the frequency range is 1 Hz-10^5 Hz.
In an embodiment of the disclosure, the electrochemical AC impedance method (EIS) measures the signals obtained by the electrochemical sensor stimulated by different concentrations of toxins, the impedance value is calculated by fitting the equivalent circuit with Zview software, the cell viability inhibition rates of different concentrations of toxins are calculated, and the calculation method is as follows: […]
(1) Drug stimulation: An original culture medium on a working electrode is removed, toxin standard substances are diluted with a DMEM cell culture medium into gradient concentration solutions, and then 150 μL of DON toxin solutions in the concentration range of 0.1, 0.2, 0.5, 1, 2 and 5 μg/mL, 150 μL of 15-ADON toxin solutions in the concentration range of 0.1, 0.2, 0.5, 1, 2 and 5 μg/mL and 150 μL of DON+15-ADON toxin solutions in the concentration range of 0.1+0.1, 0.2+0.2, 0.5+0.5, 1+1, 2+2 and 5+5 μg/mL are taken and dropped on the working electrode printed with cells respectively, the working electrode is placed in an incubator for effect for 24 hours, and corresponding impedance values are measured. […]

Row | SMILES | conversion into DON in blood [1] | IC50 value measured by the EIS method [2] [µg/mL] | impedance value of the cell sensor with increasing dose [2]
1 | CC(=O)O[C@@H]1C[C@]2(C)[C@@]3(CO)[C@H](O)C(=O)C(C)=C[C@H]3O[C@H]1[C@@]21CO1 [3-ADON] | quickly converted into DON | – | –
2 | CC1=C[C@H]2O[C@@H]3[C@H](O)C[C@](C)([C@@]2(CO)[C@H](O)C1=O)[C@]31CO1 [DON, deoxynivalenol] | – | 0.9281 | gradually reduced
3 | CC(=O)OC[C@]12[C@H](O)C(=O)C(C)=C[C@H]1O[C@@H]1[C@H](O)C[C@@]2(C)[C@]12CO2 [15-ADON, 15-acetyl-deoxynivalenol] | – | 1.2560 | gradually reduced
